Tests used:
[1] = molecular target: T1, Cholinesterase (Homo sapiens, UniProt P06276); assay: Binding affinity of human serum BChE assessed as inhibition constant by Ellman's method
[2] = molecular target: T2, Cholinesterases; ACHE & BCHE (Homo sapiens) (UniProt P06276+P22303); assay: Selectivity index, ratio of IC50 for human whole red blood cells BChE to IC50 for human whole red blood cells AChE
[3] = molecular target: T1, Cholinesterase; assay: Inhibition of human whole red blood cells BChE using butyrylthiocholine iodide as substrate incubated for 25 mins by Ellman's method
[4] = molecular target: T3, Acetylcholinesterase (Homo sapiens, UniProt P22303); assay: Inhibition of human whole red blood cells AChE using acetylthiocholine iodide as substrate incubated for 25 mins by Ellman's method
T3 sequence (P22303 whole entry): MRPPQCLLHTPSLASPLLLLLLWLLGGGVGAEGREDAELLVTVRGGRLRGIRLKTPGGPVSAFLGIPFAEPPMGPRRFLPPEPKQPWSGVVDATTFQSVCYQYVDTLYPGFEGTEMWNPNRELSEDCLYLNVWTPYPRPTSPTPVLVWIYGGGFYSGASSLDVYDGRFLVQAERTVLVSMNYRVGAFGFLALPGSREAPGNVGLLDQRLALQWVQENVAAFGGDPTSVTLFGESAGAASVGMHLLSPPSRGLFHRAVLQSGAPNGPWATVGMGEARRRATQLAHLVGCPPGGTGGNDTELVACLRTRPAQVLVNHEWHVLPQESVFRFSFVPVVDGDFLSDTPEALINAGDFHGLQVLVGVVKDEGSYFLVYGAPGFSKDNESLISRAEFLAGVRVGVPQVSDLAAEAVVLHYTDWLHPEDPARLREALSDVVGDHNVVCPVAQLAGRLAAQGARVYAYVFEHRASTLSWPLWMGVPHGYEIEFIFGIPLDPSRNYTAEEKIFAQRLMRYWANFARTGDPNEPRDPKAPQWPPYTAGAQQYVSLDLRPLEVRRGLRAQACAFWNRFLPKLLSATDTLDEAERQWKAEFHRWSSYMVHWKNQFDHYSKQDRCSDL

[5] = molecular target: Beta-secretase 1 (Homo sapiens, UniProt P56817); assay: Inhibition of BACE1 (unknown origin) using A-beta-PP as substrate by fluorescence based assay
Sequence of Beta-secretase 1 (P56817 whole entry): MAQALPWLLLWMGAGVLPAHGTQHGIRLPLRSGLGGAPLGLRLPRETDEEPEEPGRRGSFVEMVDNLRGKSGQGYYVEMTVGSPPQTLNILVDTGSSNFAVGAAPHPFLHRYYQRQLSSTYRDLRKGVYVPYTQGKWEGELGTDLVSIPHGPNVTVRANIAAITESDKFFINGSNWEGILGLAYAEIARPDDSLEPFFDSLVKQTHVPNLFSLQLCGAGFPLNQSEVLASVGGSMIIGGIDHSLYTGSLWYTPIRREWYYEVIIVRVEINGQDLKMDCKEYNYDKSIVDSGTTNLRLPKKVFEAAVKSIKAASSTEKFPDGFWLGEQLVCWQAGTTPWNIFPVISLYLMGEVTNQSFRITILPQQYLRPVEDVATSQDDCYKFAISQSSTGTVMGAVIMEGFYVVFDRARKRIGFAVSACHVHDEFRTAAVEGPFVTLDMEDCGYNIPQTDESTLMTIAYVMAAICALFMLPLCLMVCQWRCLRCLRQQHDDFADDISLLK

[6] = molecular target: T3, Acetylcholinesterase; assay: Binding affinity to AChE (unknown origin) assessed as inhibition constant preincubated for 60 mins followed by substrate addition measured after 60 mins by colorimetric method
[7] = molecular target: Carbonic anhydrase 2 (Homo sapiens, UniProt P00918); assay: Binding affinity to human CA2 assessed as inhibition constant using p-nitrophenylacetate as substrate by spectrophotometry
[8] = molecular target: Carbonic anhydrase 1 (Homo sapiens, UniProt P00915); assay: Binding affinity to human CA1 assessed as inhibition constant using p-nitrophenylacetate as substrate by spectrophotometry
Sequence of Carbonic anhydrase 1 (P00915 whole entry): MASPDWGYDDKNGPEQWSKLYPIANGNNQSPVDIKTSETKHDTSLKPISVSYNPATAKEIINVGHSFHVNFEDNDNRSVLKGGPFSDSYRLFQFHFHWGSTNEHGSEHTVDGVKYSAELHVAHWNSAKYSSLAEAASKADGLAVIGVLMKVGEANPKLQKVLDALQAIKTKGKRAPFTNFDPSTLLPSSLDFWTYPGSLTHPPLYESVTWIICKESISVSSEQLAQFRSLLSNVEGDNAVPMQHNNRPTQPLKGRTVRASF

[9] = molecular target: T3, Acetylcholinesterase; assay: Binding affinity to human AChE assessed as inhibition constant using acetylthiocholine iodide as substrate preincubated for 10 mins followed by substrate addition by Ellman's method
[10] = molecular target: Cholinesterase (Equus caballus, UniProt P81908); assay: Inhibition of equine BChE
Sequence of Cholinesterase (Equus caballus, UniProt P81908) (P81908 whole entry): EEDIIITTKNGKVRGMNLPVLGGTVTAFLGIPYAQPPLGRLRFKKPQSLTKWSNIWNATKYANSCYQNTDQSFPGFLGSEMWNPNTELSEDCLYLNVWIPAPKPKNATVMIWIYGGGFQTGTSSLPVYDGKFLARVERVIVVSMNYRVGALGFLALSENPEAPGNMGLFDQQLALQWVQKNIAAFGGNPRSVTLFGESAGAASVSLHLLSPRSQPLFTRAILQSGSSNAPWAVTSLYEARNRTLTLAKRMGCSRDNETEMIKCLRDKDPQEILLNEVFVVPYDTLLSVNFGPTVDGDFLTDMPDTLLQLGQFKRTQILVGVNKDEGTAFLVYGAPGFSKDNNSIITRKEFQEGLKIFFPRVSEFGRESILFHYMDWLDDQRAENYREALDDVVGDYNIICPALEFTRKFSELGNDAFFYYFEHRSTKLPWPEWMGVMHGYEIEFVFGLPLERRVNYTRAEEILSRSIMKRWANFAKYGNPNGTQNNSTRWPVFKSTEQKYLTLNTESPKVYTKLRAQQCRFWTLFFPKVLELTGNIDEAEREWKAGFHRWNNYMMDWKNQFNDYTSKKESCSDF

[11] = molecular target: High affinity cGMP-specific 3',5'-cyclic phosphodiesterase 9A (Homo sapiens, UniProt O76083); assay: Inhibition of PDE9A (unknown origin)
Sequence of High affinity cGMP-specific 3',5'-cyclic phosphodiesterase 9A (O76083 whole entry): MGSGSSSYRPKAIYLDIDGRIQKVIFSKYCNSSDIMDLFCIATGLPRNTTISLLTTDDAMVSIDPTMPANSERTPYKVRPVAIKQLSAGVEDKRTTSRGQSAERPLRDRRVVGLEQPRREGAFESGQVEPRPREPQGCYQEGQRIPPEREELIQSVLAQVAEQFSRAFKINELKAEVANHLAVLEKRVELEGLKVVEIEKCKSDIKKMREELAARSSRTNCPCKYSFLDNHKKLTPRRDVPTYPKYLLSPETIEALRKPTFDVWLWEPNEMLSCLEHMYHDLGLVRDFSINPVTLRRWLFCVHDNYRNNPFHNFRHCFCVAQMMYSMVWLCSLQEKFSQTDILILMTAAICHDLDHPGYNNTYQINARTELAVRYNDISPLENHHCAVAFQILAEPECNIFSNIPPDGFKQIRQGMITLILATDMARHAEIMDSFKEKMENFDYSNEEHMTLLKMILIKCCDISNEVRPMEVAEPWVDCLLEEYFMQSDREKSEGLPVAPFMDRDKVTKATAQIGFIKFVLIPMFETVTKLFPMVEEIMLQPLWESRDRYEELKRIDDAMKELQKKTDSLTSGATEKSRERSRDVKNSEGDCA

[12] = molecular target: T4, Amine oxidase [flavin-containing] A (Homo sapiens, UniProt P21397); assay: Inhibition of recombinant human MAO-A expressed in BTI-TN-5B1-4 insect cells using p-tyramine as substrate at 100 uM preincubated for 15 mins followed by substrate addition measured after 20 mins by Amplex Red assay relative to control; conditions: BTI-TN-5B1-4, human, time 35 min
T4 sequence (P21397 whole entry): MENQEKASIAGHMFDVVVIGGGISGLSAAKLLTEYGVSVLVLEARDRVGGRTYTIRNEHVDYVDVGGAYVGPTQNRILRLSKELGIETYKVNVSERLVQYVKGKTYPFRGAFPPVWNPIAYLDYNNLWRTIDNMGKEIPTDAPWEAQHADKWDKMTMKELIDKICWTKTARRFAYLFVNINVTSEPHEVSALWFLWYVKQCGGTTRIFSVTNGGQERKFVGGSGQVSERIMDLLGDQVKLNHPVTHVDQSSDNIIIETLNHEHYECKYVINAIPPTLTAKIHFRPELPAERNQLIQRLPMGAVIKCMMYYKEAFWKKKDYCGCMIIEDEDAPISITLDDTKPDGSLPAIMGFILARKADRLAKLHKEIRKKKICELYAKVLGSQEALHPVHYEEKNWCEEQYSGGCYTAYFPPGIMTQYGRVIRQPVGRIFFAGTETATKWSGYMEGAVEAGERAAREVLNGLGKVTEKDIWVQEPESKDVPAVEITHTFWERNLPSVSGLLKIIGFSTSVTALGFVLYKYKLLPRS

[13] = molecular target: T3, Acetylcholinesterase; assay: Inhibition of recombinant human AChE using acetylthiocholine as substrate at 100 uM preincubated for 5 mins followed by substrate addition measured for 1 min by Ellman's method relative to control; conditions: time 6.0 min
[14] = molecular target: T5, Amine oxidase [flavin-containing] B (Homo sapiens, UniProt P27338); assay: Inhibition of MAO-B (unknown origin)
T5 sequence (P27338 whole entry): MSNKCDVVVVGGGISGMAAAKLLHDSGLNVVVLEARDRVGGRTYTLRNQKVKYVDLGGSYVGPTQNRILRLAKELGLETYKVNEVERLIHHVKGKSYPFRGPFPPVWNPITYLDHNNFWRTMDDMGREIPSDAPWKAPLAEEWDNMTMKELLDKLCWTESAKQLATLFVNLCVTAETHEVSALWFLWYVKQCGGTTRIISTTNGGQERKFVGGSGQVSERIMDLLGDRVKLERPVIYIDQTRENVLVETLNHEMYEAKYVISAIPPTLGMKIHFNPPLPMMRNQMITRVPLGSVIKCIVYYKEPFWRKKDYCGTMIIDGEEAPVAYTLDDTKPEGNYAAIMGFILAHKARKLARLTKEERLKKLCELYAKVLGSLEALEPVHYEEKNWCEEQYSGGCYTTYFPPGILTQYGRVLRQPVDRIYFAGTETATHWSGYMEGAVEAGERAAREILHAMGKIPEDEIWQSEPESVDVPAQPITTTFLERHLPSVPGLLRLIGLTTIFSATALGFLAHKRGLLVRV

[15] = molecular target: T6, Acetylcholinesterase (Rattus norvegicus, UniProt P37136); assay: Inhibition of rat AChE by Ellman's method
T6 sequence (P37136 whole entry): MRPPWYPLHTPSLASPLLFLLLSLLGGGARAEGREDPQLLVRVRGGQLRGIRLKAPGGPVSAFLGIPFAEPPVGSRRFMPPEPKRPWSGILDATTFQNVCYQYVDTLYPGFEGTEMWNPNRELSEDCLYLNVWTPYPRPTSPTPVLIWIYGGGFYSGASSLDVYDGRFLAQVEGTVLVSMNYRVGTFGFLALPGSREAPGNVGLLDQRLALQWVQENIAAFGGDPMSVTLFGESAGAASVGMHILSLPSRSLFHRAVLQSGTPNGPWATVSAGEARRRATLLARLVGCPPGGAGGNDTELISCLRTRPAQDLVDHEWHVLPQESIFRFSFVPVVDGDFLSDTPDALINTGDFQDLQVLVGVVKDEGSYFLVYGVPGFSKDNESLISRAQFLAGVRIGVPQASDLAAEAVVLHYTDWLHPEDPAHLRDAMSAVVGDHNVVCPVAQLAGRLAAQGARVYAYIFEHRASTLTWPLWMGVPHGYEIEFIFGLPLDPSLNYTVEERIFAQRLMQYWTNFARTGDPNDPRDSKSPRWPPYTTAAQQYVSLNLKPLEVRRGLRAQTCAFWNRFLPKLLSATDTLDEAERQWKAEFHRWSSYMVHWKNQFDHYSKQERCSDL

[16] = molecular target: T4, Amine oxidase [flavin-containing] A; assay: Inhibition of MAO-A (unknown origin)
[17] = molecular target: T3, Acetylcholinesterase; assay: Inhibition of human erythrocyte AChE using acetylthiocholine iodide as substrate preincubated for 6 mins followed by substrate addition measured upto 180 secs by Ellman's method
[18] = molecular target: T5, Amine oxidase [flavin-containing] B; assay: Inhibition of recombinant human MAO-B using p-tyramine as substrate preincubated for 15 mins followed by substrate addition measured upto 20 mins by Amplex red assay
[19] = molecular target: T3, Acetylcholinesterase; assay: Inhibition of human AChE using acetylthiocholine iodide as substrate preincubated for 10 mins followed by substrate addition by spectrophotometry
[20] = molecular target: T2, Cholinesterases; ACHE & BCHE (Homo sapiens); assay: Selectivity index, ratio of IC50 for human plasma BChE to IC50 for human erythrocyte AChE; format: protein assay
[21] = molecular target: T1, Cholinesterase; assay: Inhibition of human plasma BChE using S-butyrylthiocholine as substrate by Ellman's method
[22] = molecular target: T3, Acetylcholinesterase; assay: Inhibition of human erythrocyte AChE using acetyl-(beta-methyl)thiocholine as substrate by Ellman's method
[23] = Toxicity in mouse assessed as lethal dose; conditions: in vivo
[24] = molecular target: T3, Acetylcholinesterase; assay: Binding affinity to AChE (unknown origin) assessed as inhibition constant
[25] = molecular target: T2, Cholinesterases; ACHE & BCHE (Homo sapiens); assay: Selectivity index, ratio of IC50 for recombinant human serum AChE to IC50 for recombinant human serum BChE; format: protein assay
[26] = molecular target: Fatty-acid amide hydrolase 1 (Rattus norvegicus, UniProt P97612); assay: Displacement of [14C]-ethanolamine from FAAH derived from rat brain membrane fraction preincubated for 20 mins followed by susbstrate addition by scintillation counting method; format: cell membranes
Sequence of Fatty-acid amide hydrolase 1 (P97612 whole entry): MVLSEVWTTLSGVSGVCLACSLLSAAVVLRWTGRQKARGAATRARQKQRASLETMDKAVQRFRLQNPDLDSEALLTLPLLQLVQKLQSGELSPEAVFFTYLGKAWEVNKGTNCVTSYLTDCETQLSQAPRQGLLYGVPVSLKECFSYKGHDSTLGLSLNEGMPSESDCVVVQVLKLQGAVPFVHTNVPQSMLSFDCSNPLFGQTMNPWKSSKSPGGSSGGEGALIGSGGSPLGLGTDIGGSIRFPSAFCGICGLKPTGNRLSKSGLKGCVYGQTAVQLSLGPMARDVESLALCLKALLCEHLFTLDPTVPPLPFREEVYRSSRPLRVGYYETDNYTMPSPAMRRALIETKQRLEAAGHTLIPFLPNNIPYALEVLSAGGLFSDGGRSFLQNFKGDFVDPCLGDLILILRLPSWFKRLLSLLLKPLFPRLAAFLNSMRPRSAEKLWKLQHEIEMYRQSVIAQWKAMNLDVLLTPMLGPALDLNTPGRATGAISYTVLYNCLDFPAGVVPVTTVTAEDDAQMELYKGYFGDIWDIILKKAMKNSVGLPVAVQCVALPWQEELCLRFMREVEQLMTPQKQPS

[27] = molecular target: T3, Acetylcholinesterase; assay: Binding affinity to AChE (unknown origin) assessed as inhibition constant using acetylthiocholine iodide as substrate preincubated for 10 mins followed by substrate addition by Ellman's method

T1 sequence (P06276 whole entry): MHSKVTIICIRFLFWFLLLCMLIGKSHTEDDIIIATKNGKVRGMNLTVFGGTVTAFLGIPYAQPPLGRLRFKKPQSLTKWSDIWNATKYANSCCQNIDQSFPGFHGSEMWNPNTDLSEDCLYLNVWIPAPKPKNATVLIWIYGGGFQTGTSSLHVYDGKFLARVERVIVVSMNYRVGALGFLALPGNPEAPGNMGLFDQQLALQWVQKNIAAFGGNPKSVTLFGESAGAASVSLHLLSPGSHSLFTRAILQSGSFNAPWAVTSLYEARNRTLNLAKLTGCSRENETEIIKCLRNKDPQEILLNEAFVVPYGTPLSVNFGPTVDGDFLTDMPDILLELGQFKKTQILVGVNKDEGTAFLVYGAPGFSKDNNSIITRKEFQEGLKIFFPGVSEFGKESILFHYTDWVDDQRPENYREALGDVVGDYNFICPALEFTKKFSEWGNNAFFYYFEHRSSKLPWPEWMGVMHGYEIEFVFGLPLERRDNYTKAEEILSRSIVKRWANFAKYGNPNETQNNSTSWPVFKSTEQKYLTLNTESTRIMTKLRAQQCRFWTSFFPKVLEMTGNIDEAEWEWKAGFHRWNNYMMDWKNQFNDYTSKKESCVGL
T2 sequence (P06276 whole entry, looked up): as the sequence (P06276 whole entry) above
T2 sequence (P22303 whole entry, looked up): as the sequence (P22303 whole entry) above

Structure (SMILES): CC(C)c1ccc(NC(=O)Oc2ccc3c(c2)[C@]2(C)CCN(Cc4ccc(F)cc4)[C@@H]2N3C)cc1
- Ki [1]: 0.342 µM

Structure (SMILES): CC(=O)N1CC[C@@]2(O)c3cc(OC(=O)Nc4ccccc4)ccc3N[C@@H]12
- Ratio IC50 [2]: > 400
- IC50 [3]: > 100 µM
- IC50 [4]: 0.25 µM

Structure (SMILES): CC1CCCCN1CCCNC(=O)c1cc(NC(=O)OC(C)(C)C)ccc1O (stereo not drawn)
- IC50 [5]: 0.0154 µM
- Ki [6]: 0.17 µM

Structure (SMILES): COc1cc2c(c(OC)c1)CC(NC(=O)OCc1ccccc1)C2 (stereo not drawn)
- Ki [7]: 0.00739 µM
- Ki [8]: 0.00561 µM
- Ki [9]: 0.000261 µM

Structure (SMILES): COc1cc(CNc2nc3c(cnn3C3CCCC3)c(=O)[nH]2)ccc1OC(=O)N(C)C
- IC50 [10]: 0.97 µM
- IC50 [11]: 0.017 µM

Structure (SMILES): C#CCN1CCC(CCc2cccc(OC(=O)Nc3ccccc3)c2)CC1
- inhibition at 100 µM [12]: 54%
- inhibition [13]: 51.9%

Structure (SMILES): CC/N=C1\CCc2c1n(C)c1ccc(OC(=O)NC)c(Br)c21
- IC50 [14]: > 1000 µM
- IC50 [15]: 0.14 µM
- IC50 [16]: 0.21 µM

Structure (SMILES): CCN(C)C(=O)Oc1ccc(CNc2nc3c(cnn3C3CCCC3)c(=O)[nH]2)cc1OC
- IC50 [10]: 3.3 µM
- IC50 [11]: 0.014 µM

Structure (SMILES): Cc1c(Cl)c(=O)oc2cc(OCCCCSC(=S)N3CCCCC3C)ccc12 (stereo not drawn)
- IC50 [17]: 0.0068 µM
- IC50 [18]: 0.876 µM

Structure (SMILES): C#CCN1CCC(CCc2cccc(OC(=O)N(C)CC)c2)CC1
- inhibition at 100 µM [12]: 69.4%
- inhibition [13]: 50.2%

Structure (SMILES): CCOC(=O)C1=CN(C)c2cccc(OC(=O)N(C)C)c2C1
- IC50 [19]: > 1000 µM

Structure (SMILES): CNC(=O)Oc1ccc2c(c1)[C@]1(C)CCO[C@@H]1N2C
- Ratio IC50 [20]: 27
- IC50 [21]: 0.0067 µM
- IC50 [22]: 0.004 µM

Structure (SMILES): CCCCCCCNC(=O)Oc1ccc2c(c1)[C@]1(C)CCN(C)[C@@H]1N2C [EPTASTIGMINE]
- LD50 [23]: 35 mg/kg
- Ki [24]: 0.1 µM

Structure (SMILES): CN(CCCOc1ccc2ccc(=O)oc2c1)Cc1cccc(OC(=O)NC2CCCCC2)c1
- Ratio IC50 [25]: 2.98
- IC50 [26]: 0.00133 µM

Structure (SMILES): COc1cccc2c1CCC(NC(=O)OCc1ccccc1)C2 (stereo not drawn)
- Ki [7]: 0.00739 µM
- Ki [27]: 0.000264 µM
- Ki [8]: 0.00589 µM
